Columns and labels:
A549 = experiment: Cytotoxicity against human A549 cells assessed as inhibition of cell growth after 24 hrs by MTT assay; assay type: functional, cell-based; conditions: A549, 24 h
[1] = Cytotoxicity against human Bel7402 cells assessed as inhibition of cell growth after 24 hrs by MTT assay; assay type: functional, cell-based; conditions: Bel-7402, 24 h
SMMC-7721 = experiment: Cytotoxicity against human SMMC7721 cells assessed as inhibition of cell growth after 24 hrs by MTT assay; assay type: functional, cell-based; conditions: SMMC-7721, 24 h
[2] = Cytotoxicity against human HL7702 cells assessed as inhibition of cell growth after 24 hrs by MTT assay; assay type: cell-based; conditions: L02, 24 h
[3] = Hemolytic activity in rabbit RBC assessed as induction of hemolysis; assay type: cell-based, Oryctolagus cuniculus, Erythrocyte; conditions: red blood cells, read-out: HD50 (the source's name)
[4] = Ratio of hemolytic HD50 for PSA to hemolytic HD50 for compound in rabbit RBC; assay type: ADME, cell-based, Oryctolagus cuniculus; conditions: erythrocyte

| Compound | IC50 (A549) | IC50 [1] | IC50 (SMMC-7721) | IC50 [2] | HC50 [3] | Ratio [4] |
| --- | --- | --- | --- | --- | --- | --- |
| C[C@@H]1O[C@@H](O[C@H]2[C@H](O[C@H]3CC[C@@]4(C)[C@@H](CC[C@]5(C)[C@@H]4CC=C4[C@@H]6CC(C)(C)CC[C@]6(C(=O)N6CCOCC6)CC[C@]45C)[C@]3(C)CO)OC[C@H](O)[C@@H]2O)[C@H](O)[C@H](O)[C@H]1O | 34.7 µM | 37.9 µM | 17.2 µM | 22 µM | 230 µM | 20 |
| CC(=O)OCOC(=O)[C@]12CCC(C)(C)C[C@H]1C1=CC[C@@H]3[C@@]4(C)CC[C@H](O[C@@H]5OC[C@H](O)[C@H](O)[C@H]5O[C@@H]5O[C@@H](C)[C@H](O)[C@@H](O)[C@H]5O)[C@@](C)(CO)[C@@H]4CC[C@@]3(C)[C@]1(C)CC2 | 21.3 µM | 33.8 µM | 13.2 µM | 20.5 µM | 3.6 µM |  |
| C[C@@H]1O[C@@H](O[C@H]2[C@H](O[C@H]3CC[C@@]4(C)[C@@H](CC[C@]5(C)[C@@H]4CC=C4[C@@H]6CC(C)(C)CC[C@]6(C(=O)N6CCN(CCC(=O)O)CC6)CC[C@]45C)[C@]3(C)CO)OC[C@H](O)[C@@H]2O)[C@H](O)[C@H](O)[C@H]1O | 23.4 µM | > 100 µM | > 100 µM | 46.6 µM | 195 µM | 20 |
| C[C@@H]1O[C@@H](O[C@H]2[C@H](O[C@H]3CC[C@@]4(C)[C@@H](CC[C@]5(C)[C@@H]4CC=C4[C@@H]6CC(C)(C)CC[C@]6(C(N)=O)CC[C@]45C)[C@]3(C)CO)OC[C@H](O)[C@@H]2O)[C@H](O)[C@H](O)[C@H]1O | > 100 µM | > 100 µM | > 100 µM | > 100 µM | 30.2 µM |  |
| C[C@@H]1O[C@@H](O[C@H]2[C@H](O[C@H]3CC[C@@]4(C)[C@@H](CC[C@]5(C)[C@@H]4CC=C4[C@@H]6CC(C)(C)CC[C@]6(C(=O)N[C@H](CO)C(=O)O)CC[C@]45C)[C@]3(C)CO)OC[C@H](O)[C@@H]2O)[C@H](O)[C@H](O)[C@H]1O | 32.5 µM | 22.3 µM | 26.6 µM | 25.6 µM | 8.3 µM |  |
| C[C@@H]1O[C@@H](O[C@H]2[C@H](O[C@H]3CC[C@@]4(C)[C@@H](CC[C@]5(C)[C@@H]4CC=C4[C@@H]6CC(C)(C)CC[C@]6(C(=O)NC6CC6)CC[C@]45C)[C@]3(C)CO)OC[C@H](O)[C@@H]2O)[C@H](O)[C@H](O)[C@H]1O | 38.3 µM | 69.2 µM | 32.6 µM | 36.2 µM | 127 µM |  |
| C[C@@H]1O[C@@H](O[C@H]2[C@H](O[C@H]3CC[C@@]4(C)[C@@H](CC[C@]5(C)[C@@H]4CC=C4[C@@H]6CC(C)(C)CC[C@]6(C(=O)Nc6ccc(C(=O)O)cc6)CC[C@]45C)[C@]3(C)CO)OC[C@H](O)[C@@H]2O)[C@H](O)[C@H](O)[C@H]1O | 1.1 µM | 4.2 µM | > 100 µM | 0.7 µM | 356 µM | 20 |
| COC(=O)[C@@H](CO)NC(=O)[C@]12CCC(C)(C)C[C@H]1C1=CC[C@@H]3[C@@]4(C)CC[C@H](O[C@@H]5OC[C@H](O)[C@H](O)[C@H]5O[C@@H]5O[C@@H](C)[C@H](O)[C@@H](O)[C@H]5O)[C@@](C)(CO)[C@@H]4CC[C@@]3(C)[C@]1(C)CC2 | > 100 µM | > 100 µM | 88.3 µM | > 100 µM | 144 µM | 20 |
| COC(=O)[C@]12CCC(C)(C)C[C@H]1C1=CC[C@@H]3[C@@]4(C)CC[C@H](O[C@@H]5OC[C@H](O)[C@H](O)[C@H]5O[C@@H]5O[C@@H](C)[C@H](O)[C@@H](O)[C@H]5O)[C@@](C)(CO)[C@@H]4CC[C@@]3(C)[C@]1(C)CC2 | 27 µM | 72.1 µM | 40.8 µM | 36.3 µM | 8.5 µM |  |
| CCN(CC)CCNC(=O)[C@]12CCC(C)(C)C[C@H]1C1=CC[C@@H]3[C@@]4(C)CC[C@H](O[C@@H]5OC[C@H](O)[C@H](O)[C@H]5O[C@@H]5O[C@@H](C)[C@H](O)[C@@H](O)[C@H]5O)[C@@](C)(CO)[C@@H]4CC[C@@]3(C)[C@]1(C)CC2 | 65.3 µM | > 100 µM | 48 µM | 40.6 µM | 75.3 µM |  |
| C[C@@H]1O[C@@H](O[C@H]2[C@H](O[C@H]3CC[C@@]4(C)[C@@H](CC[C@]5(C)[C@@H]4CC=C4[C@@H]6CC(C)(C)CC[C@]6(C(=O)NCCN6CCCC6)CC[C@]45C)[C@]3(C)CO)OC[C@H](O)[C@@H]2O)[C@H](O)[C@H](O)[C@H]1O | > 100 µM | > 100 µM | 46.8 µM | 44.4 µM | 104 µM |  |
| COC(=O)[C@H]1CCCN1C(=O)[C@]12CCC(C)(C)C[C@H]1C1=CC[C@@H]3[C@@]4(C)CC[C@H](O[C@@H]5OC[C@H](O)[C@H](O)[C@H]5O[C@@H]5O[C@@H](C)[C@H](O)[C@@H](O)[C@H]5O)[C@@](C)(CO)[C@@H]4CC[C@@]3(C)[C@]1(C)CC2 | 43.2 µM | 59.6 µM | 36 µM | 36.6 µM | 494 µM | 20 |
| C[C@@H]1O[C@@H](O[C@H]2[C@H](O[C@H]3CC[C@@]4(C)[C@@H](CC[C@]5(C)[C@@H]4CC=C4[C@@H]6CC(C)(C)CC[C@]6(C(=O)Nc6ccccc6O)CC[C@]45C)[C@]3(C)CO)OC[C@H](O)[C@@H]2O)[C@H](O)[C@H](O)[C@H]1O | > 100 µM | > 100 µM | 1.3 µM | 85.5 µM | 58.2 µM |  |
| COC(=O)CCN1CCN(C(=O)[C@]23CCC(C)(C)C[C@H]2C2=CC[C@@H]4[C@@]5(C)CC[C@H](O[C@@H]6OC[C@H](O)[C@H](O)[C@H]6O[C@@H]6O[C@@H](C)[C@H](O)[C@@H](O)[C@H]6O)[C@@](C)(CO)[C@@H]5CC[C@@]4(C)[C@]2(C)CC3)CC1 | 14 µM | 53.2 µM | 38.3 µM | 61.7 µM | 57.7 µM |  |
| C[C@@H]1O[C@@H](O[C@H]2[C@H](O[C@H]3CC[C@@]4(C)[C@@H](CC[C@]5(C)[C@@H]4CC=C4[C@@H]6CC(C)(C)CC[C@]6(C(=O)NCC(=O)O)CC[C@]45C)[C@]3(C)CO)OC[C@H](O)[C@@H]2O)[C@H](O)[C@H](O)[C@H]1O | 1 µM | 0.9 µM | 3.2 µM | > 100 µM | > 500 µM | 20 |
| C[C@@H]1O[C@@H](O[C@H]2[C@H](O[C@H]3CC[C@@]4(C)[C@@H](CC[C@]5(C)[C@@H]4CC=C4[C@@H]6CC(C)(C)CC[C@]6(C(=O)N6CCC[C@@H]6C(=O)O)CC[C@]45C)[C@]3(C)CO)OC[C@H](O)[C@@H]2O)[C@H](O)[C@H](O)[C@H]1O | 61.6 µM | 64 µM | 41.4 µM | 53.7 µM | 22.9 µM |  |

Reference: ChEMBL document CHEMBL3425467, “Synthesis, cytotoxicity and haemolytic activity of Pulsatilla saponin A, D derivatives” (Bioorg Med Chem Lett, 2015)
